Assay results as given in publication PMC7304070 (Journal of the American Chemical Society, 2020).

Tests used:
[1] = Circular dichroism helicity; assay type: physicochemical; conditions: for Helicity, Stabilized (S): CD, 10 μM in 1:1 water:acetonitrile, molar ellipticity at 222 nm, stabilized peptide
MDM2-GST = MDM2-GST (Homo sapiens, UniProt Q00987); experiment: Bacterial surface display; assay type: binding; conditions: for BSD Kd Ratio (NS/S): non-stabilized / stabilized Kd on bacterial surface
Sequence of MDM2-GST (Q00987 whole entry, the tested form may be a part): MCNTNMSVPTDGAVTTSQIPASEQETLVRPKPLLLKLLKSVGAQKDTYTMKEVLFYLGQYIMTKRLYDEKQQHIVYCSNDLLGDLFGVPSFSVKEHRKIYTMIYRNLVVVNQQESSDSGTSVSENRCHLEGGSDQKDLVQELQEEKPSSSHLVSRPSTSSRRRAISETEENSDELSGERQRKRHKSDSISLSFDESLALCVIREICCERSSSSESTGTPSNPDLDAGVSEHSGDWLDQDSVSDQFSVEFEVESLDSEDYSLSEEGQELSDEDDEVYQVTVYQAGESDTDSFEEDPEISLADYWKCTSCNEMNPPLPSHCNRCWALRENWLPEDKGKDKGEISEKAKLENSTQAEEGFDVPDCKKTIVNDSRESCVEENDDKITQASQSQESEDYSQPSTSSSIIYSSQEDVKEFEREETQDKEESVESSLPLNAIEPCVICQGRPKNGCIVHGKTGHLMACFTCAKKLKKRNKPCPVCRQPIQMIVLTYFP

[2] = target: MDM2 truncate (residues 10–118) (Homo sapiens, UniProt Q00987); experiment: Bio-layer interferometry; assay type: binding; conditions: non-stabilized / stabilized Kd in solution (fold improvement upon stabilization)
Sequence of MDM2 truncate (residues 10–118) (Q00987 10-118): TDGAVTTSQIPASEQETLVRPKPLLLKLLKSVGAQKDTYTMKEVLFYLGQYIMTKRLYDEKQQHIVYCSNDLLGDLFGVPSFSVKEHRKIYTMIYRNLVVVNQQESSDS

Sequence	Helicity, Stabilized (S) [1] [%]	BSD Kd Ratio (NS/S) (MDM2-GST)	BLI Kd Ratio (NS/S) [2]	also measured
ETAXDLWRLLXEN (sidechain bridge or staple) [SPD-M0-E(−2)-F19A]	50			binding as displayed on the bacterial cell surface (MDM2-GST; negative controls, Figure S1): did not exhibit measurable binding
ETFXDLWRLLXEN (sidechain bridge or staple) [SPD-M0-E(−2)]	53			
GGTFXGYWADLXAF (sidechain bridge or staple) [SPD-M3-G1]	18	1.4	4.1	Helicity Ratio (S/NS) ([1]; stabilized / non-stabilized helicity): 1.1; improvement in affinity over the starting sequence SPD-M0-E(−2) (MDM2-GST; bacterial surface, stabilized, after 3 rounds of sorting, n = 3 independent trials of duplicates): ~5 fold
QTFXDLWRLLXEN (sidechain bridge or staple) [SPD-M0-E(−1)]	40			
QTFXDLWRLLXQN (sidechain bridge or staple) [SPD-M0-E(0)]	41			
VLSFXDYWNLLXGS (sidechain bridge or staple) [SPD-M3-V1]		6.6	9.4	
